Target: T1, protease activated receptor subtype 1, PAR1 (Homo sapiens, UniProt P25116)
T1 construct: A431 cells endogenously express both PAR1 and β2AR; endogenous in cells; host or cells: A431 (human epidermoid carcinoma)
T1 sequence (P25116 22-425): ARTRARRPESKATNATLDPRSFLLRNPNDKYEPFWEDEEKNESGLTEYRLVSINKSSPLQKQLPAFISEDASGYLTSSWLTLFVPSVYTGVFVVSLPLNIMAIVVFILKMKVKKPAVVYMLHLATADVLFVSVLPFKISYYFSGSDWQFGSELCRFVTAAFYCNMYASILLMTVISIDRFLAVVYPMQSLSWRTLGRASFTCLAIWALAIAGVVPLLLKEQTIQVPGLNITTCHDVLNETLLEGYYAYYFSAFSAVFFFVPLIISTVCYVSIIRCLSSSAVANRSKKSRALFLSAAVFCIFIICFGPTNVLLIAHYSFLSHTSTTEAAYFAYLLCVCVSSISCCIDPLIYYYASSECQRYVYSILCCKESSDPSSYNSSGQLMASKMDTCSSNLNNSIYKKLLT
Assay: RWG biosensor DMR assay, SFLLR-amide stimulation of A431 cells
Type: cell-based
Settings: 1 micromolar
Source text: Corning® Epic® wavelength interrogation system was used.
It is widely believed that GPCR signaling proceeds through a series of highly regulated spatial and temporal events besides the production and regulations of second messengers such as Ca^2+ and cAMP. […] The label-free optical biosensors enable the measurement of an integrated cellular response relating to ligand-induced dynamic mass redistribution in cells within the detection zone of the biosensor, offering a novel readout for receptor biology and ligand pharmacology.
FIG. 2 provide examples of RWG biosensor-based cell assays against two classes of G protein-coupled receptors. […] A431 cells endogenously express both PAR1 and β2AR. […] This is consistent with the known signaling pathways mediated through each receptor individually, i.e., PAR1 activation leads to a Gq pathway, while β2AR activation leads to a Gs pathway. […] In FIGS. 2b, 2c and 2d, the error bar at each time point was also included. One possible explanation is that distinct classes of GPCRs can mediate signaling through distinct routes (e.g., “channeling” or “tunneling”), and the cells can respond synergistically to co-stimulation with two agonists targeting two different receptors.

type of DMR signal induced: Gq-type DMR signal
Substance: SFLLR-amide

From patent US8759013B2, “Dual-target biosensor cell assays” (Corning Incorporated, priority 2008, dated 2014)
